Data set [1] is described as follows: activity coefficient (dimensionless); of the first substance listed, at infinite dilution; xn = mol fraction of the nth substance listed. As to conditions: Liquid, x1 = 0.
For data set [2] the following is noted: Liquid, Ebulliometric method (Recirculating still).
Where [3] appears, read: 333.15 K, 100 kPa, Rayleigh distillation.
The mark [4] stands for this setting: 303.15 K, 100 kPa, Rayleigh distillation.
Where [5] appears, read: 313.15 K, 100 kPa, Rayleigh distillation.
[6] abbreviates: 323.15 K, 100 kPa, Rayleigh distillation.
Setting [7] is: 293.15 K, 46.85 kPa, comparative ebulliometry.
[8] abbreviates: 303.15 K, 69.6 kPa, comparative ebulliometry.
Where [9] appears, read: 311.15 K, 93.62 kPa, comparative ebulliometry.

Numbers after ± are expanded uncertainties.

For the compound `CCCCO` [butan-1-ol] + ClCCl, the activity coefficient was 7.68 ± 0.65 in data set [1] (293.15 K, 100 kPa, differential distillation); 6.18 ± 0.51 in data set [1] (303.15 K, 100 kPa, differential distillation); 5.43 ± 0.57 in data set [1] (311.15 K, 100 kPa, differential distillation).
What is called vapor or sublimation pressure is the equilibrium pressure above the liquid or solid. Regarding `ClCCl` [dichloromethane], the “vapor or sublimation pressure” value in data set [2] (285.89 K) stood at 34.66 ± 0.065 kPa; in data set [2] (287.58 K) it was 37.33 ± 0.068 kPa; in data set [2] (289.94 K), 41.33 ± 0.073 kPa; in data set [2] (292.12 K), 45.33 ± 0.078 kPa; in data set [2] (294.15 K), 49.33 ± 0.083 kPa; in data set [2] (296.05 K), 53.33 ± 0.09 kPa. In addition, the “vapor or sublimation pressure” value in data set [2] (298.41 K) is listed as 58.66 ± 0.095 kPa; in data set [2] (300.61 K), 63.99 ± 0.1 kPa; in data set [2] (302.67 K) it was 69.33 ± 0.11 kPa; in data set [2] (304.61 K) it was 74.66 ± 0.12 kPa; in data set [2] (306.43 K), 79.99 ± 0.12 kPa; in data set [2] (308.17 K) it was 85.33 ± 0.13 kPa. In addition, the “vapor or sublimation pressure” value in data set [2] (309.82 K) came out at 90.66 ± 0.13 kPa; in data set [2] (311.39 K), 95.99 ± 0.14 kPa.
For `ClCCl` [dichloromethane] + CCCCO, the activity coefficient was 1.85 ± 0.1 in data set [1] (283.15 K, 100 kPa, inert gas stripping); 1.86 ± 0.11 in data set [1] (293.15 K, 100 kPa, inert gas stripping); 1.86 ± 0.11 in data set [1] (303.15 K, 100 kPa, inert gas stripping); 1.86 ± 0.11 in data set [1] (313.15 K, 100 kPa, inert gas stripping); 1.83 ± 0.1 in data set [1] (323.15 K, 100 kPa, inert gas stripping); 1.76 ± 0.1 in data set [1] (333.15 K, 100 kPa, inert gas stripping).
In the case of `ClCCl` [dichloromethane] + CCCO, the activity coefficient stood at 1.99 ± 0.12 in data set [1] (283.15 K, 100 kPa, Inert gas stripping); 2 ± 0.16 in data set [1] (293.15 K, 100 kPa, Inert gas stripping); 2.02 ± 0.16 in data set [1] (303.15 K, 100 kPa, Inert gas stripping); 2.05 ± 0.16 in data set [1] (313.15 K, 100 kPa, Inert gas stripping); 2.04 ± 0.16 in data set [1] (323.15 K, 100 kPa, Inert gas stripping); 2.02 ± 0.16 in data set [1] (333.15 K, 100 kPa, Inert gas stripping). In data set [1] (setting [3]), the activity coefficient is 2.06 ± 0.16.
Turning to `ClCCl` [dichloromethane] + CCO, the activity coefficient was determined as 2.29 ± 0.18 in data set [1] (setting [4]); 2.3 ± 0.18 in data set [1] (setting [5]); 2.29 ± 0.18 in data set [1] (setting [6]); 2.27 ± 0.18 in data set [1] (setting [3]); 2.18 ± 0.25 in data set [1] (343.15 K, 100 kPa, Rayleigh distillation).
`ClCCl` [dichloromethane] + CO: the activity coefficient came out at 2.84 ± 0.24 in data set [1] (293.15 K, 100 kPa, Rayleigh distillation); 2.87 ± 0.23 in data set [1] (setting [4]); 2.87 ± 0.23 in data set [1] (setting [5]); 2.83 ± 0.23 in data set [1] (setting [6]); 2.81 ± 0.22 in data set [1] (setting [3]).
As to `CCO` [ethanol] + ClCCl, the activity coefficient in data set [1] (setting [7]) amounted to 9.56 ± 0.78; in data set [1] (setting [8]) it was 7.98 ± 0.65; in data set [1] (setting [9]), 7.09 ± 0.58.
Turning to `CO` [methanol] + ClCCl, the activity coefficient came to 13.4 ± 1.3 in data set [1] (setting [7]), 11.6 ± 1.1 in data set [1] (setting [8]) and 9.86 ± 0.89 in data set [1] (setting [9]).
The matching figures for `CCCO` [propan-1-ol] + ClCCl: 8.38 ± 0.7, 6.99 ± 0.61 and 5.98 ± 0.51.

The values above are taken from the NIST ThermoML archive (doi:10.1016/j.fluid.2015.11.037).
